Assay [1] relates to Helicobacter pylori. Description: Filter paper disc diffusion method, zone of inhibition. The assay is classed as cell-based. The conditions noted are these: read-out: Inhibition zone. On the technique in general: Agar diffusion results depend on both activity and mobility in agar.
Assay [2] has as its system Helicobacter pylori. Described as above. The assay is classed as cell-based. As for the experimental part:
The inhibition effect was determined in-vitro, using the "Filter paper disc diffusion method" as described by Laura L. Zaika, (journal of Food Safety 9,1988,p.97-118). According to the method used, an extract of the plant was deposited on a small filter paper disc having a diameter of 0.5 cm and then placed in the center of a Petri plate containing agar growth medium inoculated with the test microorganism. The plate was incubated under microaerophilic conditions in anaerobic jars at 37° C. for 3 to 4 days and observed for microbial growth. If the extract of Cinnamon exerts antimicrobial activity, the microorganism will not grow in an area surrounding the filter paper disc. This clear area, defined as "zone of inhibition" was measured and recorded in mm. This method is well-known also for determining the activity of an antibiotic compound, by measuring the zone of inhibition arround a disc containing a sample of the antibacterial compound to be tested.
The assays used for the bacterial growth inhibition were as follows:
Two organic Cinnamon extracts, methylene chloride and ethanol in concentrations of 0.05 mg and 0.1 mg respectively were spotted on standard discs and placed on Egg Yolk Emulsion agar plate center which was previously layered with 0,1 ml of a bacterial suspension having a concentration of 10^7 CFU ml.
After the required incubation, the inhibition zone was recorded. In FIG. 2,there are presented the sensitivity of Helicobacter pylori, as determined by the inhibition diameter, using two organic extracts of Cinnamon (0,05 mg and 0.1 mg dry weight) compared with antibiotics: ampicillin (0.0. mg), tetracycline (0.03 mg), erythromycine (0.015 mg) nalidixic acid (0.03 mg), cotrimoxazole (0.025 mg). In these tests, two isolates of H.pylori were used.
The tests were carried out on Egg Yolk Emulsion agar plate, the Cinnamon concentrations on disk were in the range of […].

Setting [3] is: Helicobacter pylori, read-out: Inhibition zone.

For `CC1=CCC2CC1C2(C)C` (stereo not drawn) [Alpha-pinene], the zone of inhibition at 2000 µg/disc with Helicobacter pylori [1] turned out to be 18 mm.

`O=C(OCc1ccccc1)c1ccccc1` [Benzyl-benzoate]: in the assay with Helicobacter pylori [1], the zone of inhibition at 2000 µg/disc turned out to be 17 mm.

Consider `CC1=CCC(O)(C(C)C)CC1` (stereo not shown) [Terpinen-4-ol], for which the zone of inhibition at 2000 µg/disc in the assay on Helicobacter pylori [1] came out at 22 mm.

With `OC/C=C/c1ccccc1` [Cinnamic alcohol], in the assay with Helicobacter pylori [2], the “inhibition of H. pylori growth, in words” value is listed as “only a lower inhibition zone”. Also, the zone of inhibition at 200 µg/disc with Helicobacter pylori [2] (setting [3]) was 12 mm. The molecule further gave a zone of inhibition at 400 µg/disc with Helicobacter pylori [2] (Helicobacter pylori, 0.4 mg/disk) of 20 mm.

Regarding `O=CC=Cc1ccccc1` [Cinnamaldehyde], the “inhibition of H. pylori growth, in words” value in the assay on Helicobacter pylori [2] was “substantial complete inhibition”. Also, in the assay on Helicobacter pylori [2] (setting [3]), the zone of inhibition at 50 µg/disc was 45 mm, the zone of inhibition at 100 µg/disc is 60 mm and the zone of inhibition at 200 µg/disc is greater than 90 mm.

For `COc1ccccc1/C=C/C=O`, the “inhibition of H. pylori growth, in words” value in the assay with Helicobacter pylori [2] is “beneficial effect on the inhibition but with a higher concentration”. The Inhibition zone is given as 44 mm with Helicobacter pylori [2] (0.2 mg/disk, * = substantial complete inhibition); 57 mm in the assay on Helicobacter pylori [2] (0.4 mg/disk); 68 mm in the assay on Helicobacter pylori [2] (0.6 mg/disk).

Take `CC1=CC=C(C(C)C)CC1` [Alpha-terpinene]: the “inhibition of H. pylori growth, in words” value in the assay on Helicobacter pylori [2] is recorded as “only a lower inhibition zone”. The zone of inhibition at 2000 µg/disc in the assay with Helicobacter pylori [1] is 17 mm.

The values above are taken from patent US5560912A, “Method for inhibiting growth of helicobacter pylori” (Technion Research & Development Foundation Ltd., priority 1994, dated 1996).
